These molecules were tested against T1, hCB1 (Homo sapiens, UniProt P21554) (assay: Agonist-induced GTP binding (GTPγ35S) assay at CB1, Example 8). Settings: IC50 at CB1, determined as described in Example 8; read-out: IC50.
T1 construct: made in house; host or cells: Sf9 insect cells (baculovirus), P2 membranes
T1 sequence (P21554 whole entry): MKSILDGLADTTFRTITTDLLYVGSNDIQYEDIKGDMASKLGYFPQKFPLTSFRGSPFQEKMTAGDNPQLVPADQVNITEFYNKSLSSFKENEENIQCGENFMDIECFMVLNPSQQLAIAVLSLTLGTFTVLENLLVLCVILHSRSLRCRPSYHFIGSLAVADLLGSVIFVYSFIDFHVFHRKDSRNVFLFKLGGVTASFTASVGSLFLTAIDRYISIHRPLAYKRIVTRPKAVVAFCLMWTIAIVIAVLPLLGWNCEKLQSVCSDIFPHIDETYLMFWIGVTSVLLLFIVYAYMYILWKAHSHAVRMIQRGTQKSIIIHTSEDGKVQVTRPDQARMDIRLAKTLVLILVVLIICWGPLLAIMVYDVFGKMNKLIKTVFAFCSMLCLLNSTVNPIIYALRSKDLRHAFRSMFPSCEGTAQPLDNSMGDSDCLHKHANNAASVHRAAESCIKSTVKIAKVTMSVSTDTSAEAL
Type: biochemical
Outline: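 Antagonism read as inhibition of 1 nM CP55,940-stimulated GTPγ35S ([…]) binding, compounds at 10^−10 to 10^−5 M. Baculovirus-infected Sf9 membranes bearing hCB1 plus G-protein subunits, 60 min room-temperature incubation with 5 μM GDP. Filtration and scintillation counting; data as percent over basal.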
CCCc1ccc(NC(=O)Nc2ccc([N+](=O)[O-])cc2)cc1 [Compound 529, 1-(4-nitrophenyl)-3-(4-propylphenyl)urea] gave an IC50 of under 2 µM.
Work on COc1ccc(NC(=O)Nc2ccc(OC(F)F)cc2)cc1 [Compound 530, 1-[4-(difluoromethoxy)phenyl]-3-(4-methoxyphenyl)urea] yielded an IC50 of under 2 µM.
CCOc1cccc(NC(=O)Nc2ccc(OC(F)(F)F)cc2)c1 [Compound 531, 1-(3-ethoxyphenyl)-3-[4-(trifluoromethoxy)phenyl]urea] gave an IC50 of under 2 µM.
For CCOc1ccc(NC(=O)Nc2ccc(OC(F)(F)F)cc2)cc1 [Compound 532, 1-(4-ethoxyphenyl)-3-[4-(trifluoromethoxy)phenyl]urea], the IC50 was under 2 µM.
Molecule COCc1ccc(NC(=O)Nc2ccc(OC(F)F)cc2)cc1 [Compound 533, 1-[4-(difluoromethoxy)phenyl]-3-[4-(methoxymethyl)phenyl]urea] has an IC50 of under 2 µM.
With CCCOc1ccc(NC(=O)Nc2ccccc2OC(F)F)cc1 [Compound 534, 1-[2-(difluoromethoxy)phenyl]-3-(4-propoxyphenyl)urea] the IC50 was under 2 µM.
Molecule CCCOc1ccc(NC(=O)Nc2ccc(OC(F)(F)F)cc2)cc1 [Compound 535, 1-(4-propoxyphenyl)-3-[4-(trifluoromethoxy)phenyl]urea] has an IC50 of under 2 µM.
CC(C)Oc1cccc(NC(=O)Nc2ccc(OC(F)(F)F)cc2)c1 [Compound 536, 1-(3-isopropoxyphenyl)-3-[4-(trifluoromethoxy)phenyl]urea] was tested, and the IC50 was under 2 µM.
In the case of CC(C)Oc1ccc(NC(=O)Nc2ccccc2OC(F)F)cc1 [Compound 537, 1-[2-(difluoromethoxy)phenyl]-3-(4-isopropoxyphenyl)urea], the IC50 is reported as under 2 µM.
In the case of CC(C)Oc1ccc(NC(=O)Nc2ccc(OC(F)(F)F)cc2)cc1 [Compound 538, 1-(4-isopropoxyphenyl)-3-[4-(trifluoromethoxy)phenyl]urea], the IC50 is reported as under 2 µM.
O=C(Nc1cccc(OC(F)F)c1)Nc1ccccc1OC(F)F [Compound 539, 1-[2-(difluoromethoxy)phenyl]-3-[3-(difluoromethoxy)phenyl]urea] showed an IC50 of under 2 µM.
Work on O=C(Nc1ccc(OC(F)(F)F)cc1)Nc1cccc(OC(F)F)c1 [Compound 540, 1-[3-(difluoromethoxy)phenyl]-3-[4-(trifluoromethoxy)phenyl]urea] yielded an IC50 of under 2 µM.
In the case of O=C(Nc1cccc(OC(F)F)c1)Nc1ccccc1OC(F)(F)F [Compound 541, 1-[3-(difluoromethoxy)phenyl]-3-[2-(trifluoromethoxy)phenyl]urea], the IC50 is reported as under 2 µM.
With CCOc1cccc(NC(=O)Nc2ccc(OC)cc2)c1 [Compound 542, 1-(3-ethoxyphenyl)-3-(4-methoxyphenyl)urea] the IC50 was under 2 µM.
In the case of CCOc1ccc(NC(=O)Nc2cccc(OCC)c2)cc1 [Compound 543, 1-(3-ethoxyphenyl)-3-(4-ethoxyphenyl)urea], the IC50 is reported as under 2 µM.
COCc1ccc(NC(=O)Nc2cccc(OC)c2)cc1 [Compound 544, 1-[4-(methoxymethyl)phenyl]-3-(3-methoxyphenyl)urea] showed an IC50 of under 2 µM.
In the case of COCc1ccc(NC(=O)Nc2ccc(OC)cc2)cc1 [Compound 545, 1-[4-(methoxymethyl)phenyl]-3-(4-methoxyphenyl)urea], the IC50 is reported as under 2 µM.
In the case of CCCOc1ccc(NC(=O)Nc2cccc(OC)c2)cc1 [Compound 546, 1-(3-methoxyphenyl)-3-(4-propoxyphenyl)urea], the IC50 is reported as under 2 µM.
CCCOc1ccc(NC(=O)Nc2ccc(OC)cc2)cc1 [Compound 547, 1-(4-methoxyphenyl)-3-(4-propoxyphenyl)urea] showed an IC50 of under 2 µM.
COc1cccc(NC(=O)Nc2cccc(OC(C)C)c2)c1 [Compound 548, 1-(3-isopropoxyphenyl)-3-(3-methoxyphenyl)urea] was tested, and the IC50 was under 2 µM.
COc1ccc(NC(=O)Nc2cccc(OC(C)C)c2)cc1 [Compound 549, 1-(3-isopropoxyphenyl)-3-(4-methoxyphenyl)urea] showed an IC50 of under 2 µM.
In the case of CCOc1ccc(NC(=O)Nc2cccc(OC(C)C)c2)cc1 [Compound 550, 1-(4-ethoxyphenyl)-3-(3-isopropoxyphenyl)urea], the IC50 is reported as under 2 µM.
COc1cccc(NC(=O)Nc2ccc(OC(C)C)cc2)c1 [Compound 551, 1-(4-isopropoxyphenyl)-3-(3-methoxyphenyl)urea] showed an IC50 of under 2 µM.
For COc1ccc(NC(=O)Nc2ccc(OC(C)C)cc2)cc1 [Compound 552, 1-(4-isopropoxyphenyl)-3-(4-methoxyphenyl)urea], the IC50 was under 2 µM.
Work on COc1cccc(NC(=O)Nc2cccc(OC(F)F)c2)c1 [Compound 553, 1-[3-(difluoromethoxy)phenyl]-3-(3-methoxyphenyl)urea] yielded an IC50 of under 2 µM.
For COc1ccc(NC(=O)Nc2cccc(OC(F)F)c2)cc1 [Compound 554, 1-[3-(difluoromethoxy)phenyl]-3-(4-methoxyphenyl)urea], the IC50 was under 2 µM.
CCOc1ccc(NC(=O)Nc2cccc(OC(F)F)c2)cc1 [Compound 555, 1-[3-(difluoromethoxy)phenyl]-3-(4-ethoxyphenyl)urea] showed an IC50 of under 2 µM.
COc1cccc(NC(=O)Nc2ccc([N+](=O)[O-])cc2)c1 [Compound 556, 1-(3-methoxyphenyl)-3-(4-nitrophenyl)urea] gave an IC50 of under 2 µM.
For COc1ccc(NC(=O)Nc2ccc([N+](=O)[O-])cc2)cc1 [Compound 557, 1-(4-methoxyphenyl)-3-(4-nitrophenyl)urea], the IC50 was under 2 µM.
CCOc1cccc(NC(=O)Nc2ccc([N+](=O)[O-])cc2)c1 [Compound 558, 1-(3-ethoxyphenyl)-3-(4-nitrophenyl)urea] was tested, and the IC50 was under 2 µM.
In the case of CCOc1ccc(NC(=O)Nc2cccc([N+](=O)[O-])c2)cc1 [Compound 559, 1-(4-ethoxyphenyl)-3-(3-nitrophenyl)urea], the IC50 is reported as under 2 µM.
CCOc1ccc(NC(=O)Nc2ccc([N+](=O)[O-])cc2)cc1 [Compound 560, 1-(4-ethoxyphenyl)-3-(4-nitrophenyl)urea] was tested, and the IC50 was under 2 µM.
Work on COCc1ccc(NC(=O)Nc2ccc([N+](=O)[O-])cc2)cc1 [Compound 561, 1-[4-(methoxymethyl)phenyl]-3-(4-nitrophenyl)urea] yielded an IC50 of under 2 µM.
In the case of CCCOc1ccc(NC(=O)Nc2ccc([N+](=O)[O-])cc2)cc1 [Compound 562, 1-(4-nitrophenyl)-3-(4-propoxyphenyl)urea], the IC50 is reported as under 2 µM.
CC(C)Oc1cccc(NC(=O)Nc2ccc([N+](=O)[O-])cc2)c1 [Compound 563, 1-(3-isopropoxyphenyl)-3-(4-nitrophenyl)urea] was tested, and the IC50 was under 2 µM.
For CC(C)Oc1ccc(NC(=O)Nc2ccc([N+](=O)[O-])cc2)cc1 [Compound 564, 1-(4-isopropoxyphenyl)-3-(4-nitrophenyl)urea], the IC50 was under 2 µM.
O=C(Nc1cccc(OC(F)F)c1)Nc1cccc([N+](=O)[O-])c1 [Compound 565, 1-[3-(difluoromethoxy)phenyl]-3-(3-nitrophenyl)urea] was tested, and the IC50 was under 2 µM.
In the case of O=C(Nc1ccc([N+](=O)[O-])cc1)Nc1cccc(OC(F)F)c1 [Compound 566, 1-[3-(difluoromethoxy)phenyl]-3-(4-nitrophenyl)urea], the IC50 is reported as under 2 µM.
For O=C(Nc1ccc(OC(F)F)cc1)Nc1cccc([N+](=O)[O-])c1 [Compound 568, 1-[4-(difluoromethoxy)phenyl]-3-(3-nitrophenyl)urea], the IC50 was under 2 µM.
For O=C(Nc1ccc(OC(F)F)cc1)Nc1ccc([N+](=O)[O-])cc1 [Compound 569, 1-[4-(difluoromethoxy)phenyl]-3-(4-nitrophenyl)urea], the IC50 was under 2 µM.
In the case of CCOc1cccc(NC(=O)Nc2ccc(C(C)C)cc2)c1 [Compound 570, 1-(3-ethoxyphenyl)-3-(4-isopropylphenyl)urea], the IC50 is reported as under 2 µM.
In the case of COCc1cccc(NC(=O)Nc2ccc(C(C)C)cc2)c1 [Compound 571, 1-(4-isopropylphenyl)-3-[3-(methoxymethyl)phenyl]urea], the IC50 is reported as under 2 µM.
In the case of COCc1ccc(NC(=O)Nc2ccc(C(C)C)cc2)cc1 [Compound 572, 1-(4-isopropylphenyl)-3-[4-(methoxymethyl)phenyl]urea], the IC50 is reported as under 2 µM.
CCCOc1ccc(NC(=O)Nc2ccc(C(C)C)cc2)cc1 [Compound 573, 1-(4-isopropylphenyl)-3-(4-propoxyphenyl)urea] was tested, and the IC50 was under 2 µM.
CC(C)Oc1cccc(NC(=O)Nc2ccc(C(C)C)cc2)c1 [Compound 574, 1-(3-isopropoxyphenyl)-3-(4-isopropylphenyl)urea] gave an IC50 of under 2 µM.
In the case of CC(C)Oc1ccc(NC(=O)Nc2ccc(C(C)C)cc2)cc1 [Compound 575, 1-(4-isopropoxyphenyl)-3-(4-isopropylphenyl)urea], the IC50 is reported as under 2 µM.
For CC(C)c1ccccc1NC(=O)Nc1cccc(OC(F)F)c1 [Compound 576, 1-[3-(difluoromethoxy)phenyl]-3-(2-isopropylphenyl)urea], the IC50 was under 2 µM.
For CC(C)c1ccc(NC(=O)Nc2cccc(OC(F)F)c2)cc1 [Compound 577, 1-[3-(difluoromethoxy)phenyl]-3-(4-isopropylphenyl)urea], the IC50 was under 2 µM.
CCCc1ccccc1NC(=O)Nc1cccc(OC(F)F)c1 [Compound 578, 1-[3-(difluoromethoxy)phenyl]-3-(2-propylphenyl)urea] gave an IC50 of under 2 µM.
With N#CCc1ccc(NC(=O)Nc2ccc(OC(F)F)cc2)cc1 [Compound 581, 1-[4-(cyanomethyl)phenyl]-3-[4-(difluoromethoxy)phenyl]urea] the IC50 was under 2 µM.
Molecule N#CCOc1ccc(NC(=O)Nc2ccc(OC(F)F)cc2)cc1 [Compound 582, 1-[4-(cyanomethoxy)phenyl]-3-[4-(difluoromethoxy)phenyl]urea] has an IC50 of under 2 µM.
CCOC(=O)c1ccc(NC(=O)Nc2ccc(OC(F)F)cc2)cc1 [Compound 583, ethyl 4-[({[4-(difluoromethoxy)phenyl]amino}carbonyl)amino]benzoate] was tested, and the IC50 was under 2 µM.
Work on CC(C)OC(=O)c1ccc(NC(=O)Nc2ccc(OC(F)F)cc2)cc1 [Compound 584, isopropyl 4-[({[4-(difluoromethoxy)phenyl]amino}carbonyl)amino]benzoate] yielded an IC50 of under 2 µM.
In the case of COc1cccc(NC(=O)Nc2ccc(CC#N)cc2)c1 [Compound 585, 1-[4-(cyanomethyl)phenyl]-3-(3-methoxyphenyl)urea], the IC50 is reported as under 2 µM.

Source: patent publication US20090239841A1, “Diaryl Ureas as CB1 Antagonists” (priority 2004, published 2009)
